Experimental data published in patent US9029356B2, “Substituted indazole derivatives active as kinase inhibitors” (Nerviano Medical Services S.R.L., priority 2007, dated 2015).

Assays:
ALK = ALK (Homo sapiens (Human), UniProt Q9UM73); assay: Biochemical assay for inhibitors of ALK kinase activity; conditions: 20 nM enzyme, 8 microM ATP, 2 microM MBP
Text: Preparation of ALK Cytoplasmic Domain for Use in Biochemical Assay
For cloning purposes, the oligonucleotides included attB sites in order to obtain an attB-flanked PCR product suitable for cloning using the Gateway technology (Invitrogen). Furthermore, for purification purposes, forward primer included a PreScission cleavage site (Amersham Biosciences). The resulting PCR product was cloned in the baculovirus expression vector pVL1393 (Invitrogen) Gateway-modified. For expression and purification purpose, a GST tag was added N-terminal to the ALK cytoplasmic domain. Cloning was performed according to the protocols described in the Gateway manual (Invitrogen).
Affinity purified GST-ALK was loaded on a Heparin Sepharose™ FF (Amersham Biosciences) column and eluted with 50 mM NaCl, 25 mM TRIS pH 7.5, 2 mM DTT, 20% glycerol.
Biochemical Assay for Inhibitors of ALK Kinase Activity

IGF-1R = IGF-1R (Homo sapiens (Human), UniProt P08069); assay: Biochemical assay for inhibitors of IGF-1R kinase activity; conditions: 6 nM enzyme, 6 microM ATP, 10 microM peptide substrate
IGF-1R, sequence (P08069 960-1367): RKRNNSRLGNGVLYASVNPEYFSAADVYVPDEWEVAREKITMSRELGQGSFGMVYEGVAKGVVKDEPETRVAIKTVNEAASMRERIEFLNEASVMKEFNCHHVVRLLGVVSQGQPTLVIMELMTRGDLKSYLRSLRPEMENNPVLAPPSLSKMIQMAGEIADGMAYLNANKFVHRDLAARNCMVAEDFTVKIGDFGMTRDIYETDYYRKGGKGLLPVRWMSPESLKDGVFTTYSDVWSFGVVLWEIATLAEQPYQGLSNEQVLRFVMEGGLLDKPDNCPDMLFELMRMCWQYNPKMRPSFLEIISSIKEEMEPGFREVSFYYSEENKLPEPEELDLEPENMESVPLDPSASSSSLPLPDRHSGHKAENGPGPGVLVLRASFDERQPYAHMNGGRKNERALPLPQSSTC
Procedure: Biochemical Assay for Inhibitors of IGF-1 R Kinase Activity The inhibitory activity of putative kinase inhibitors and the potency of selected compounds were determined using a trans-phosphorylation assay. A specific substrate was incubated with the kinase in appropriate buffer conditions in the presence of ATP traced with ^33P-γ-ATP (gamma phosphate-labeled, RedivueTM Code Number AH9968, 1000-3000 Ci/mmole, Amersham Biosciences Piscataway, N.J., USA), optimal cofactors and test compound. At the end of the phosphorylation reaction, more than 98% cold and radioactive ATP were captured by an excess of Dowex ion exchange resin. The resin was allowed to settle to the bottom of reaction wells by gravity. Supernatant, containing substrate peptide, was subsequently withdrawn and transferred into a counting plate, and radioactivity (corresponding to phosphate incorporated into peptide) was evaluated by β-counting. […] Prior to starting the kinase inhibition assay, IGF-1R was pre-phosphorylated in order to linearize reaction kinetics. […] The peptide was obtained in batches of >95% peptide purity from American Peptide Company, Inc. (Sunnyvale, Calif., USA). […] Compounds showing desired inhibition were further analysed in order to study the potency of the inhibitor through IC50 calculation. […]

ALK, sequence (Q9UM73 1060-1620): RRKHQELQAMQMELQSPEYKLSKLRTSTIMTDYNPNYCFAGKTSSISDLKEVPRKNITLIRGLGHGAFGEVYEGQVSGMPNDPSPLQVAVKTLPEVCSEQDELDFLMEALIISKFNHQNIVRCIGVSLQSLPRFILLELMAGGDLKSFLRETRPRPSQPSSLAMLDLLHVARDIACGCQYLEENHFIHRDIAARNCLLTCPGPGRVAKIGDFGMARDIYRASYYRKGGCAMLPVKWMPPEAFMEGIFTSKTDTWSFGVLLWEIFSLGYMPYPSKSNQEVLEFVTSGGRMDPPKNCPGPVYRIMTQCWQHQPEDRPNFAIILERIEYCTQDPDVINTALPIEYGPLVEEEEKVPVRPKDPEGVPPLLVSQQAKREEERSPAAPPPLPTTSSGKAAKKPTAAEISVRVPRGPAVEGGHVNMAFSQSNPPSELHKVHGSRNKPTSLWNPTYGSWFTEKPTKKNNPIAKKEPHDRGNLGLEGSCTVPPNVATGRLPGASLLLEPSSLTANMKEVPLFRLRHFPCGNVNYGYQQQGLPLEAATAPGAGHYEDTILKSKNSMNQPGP

IC50 (ALK) [µM] | IC50 (IGF-1R) [µM] | Compound
0.207 |  | CN1CCN(c2ccc(C(=O)Nc3n[nH]c4ccc(Cc5cc(F)cc(F)c5)cc34)cc2)CC1 [Cpd 4, N-[5-(3,5-Difluoro-benzyl)-1H-indazol-3-yl]-4-(4-methyl-piperazin-1-yl)-benzamide]
1.77 | 6.07 | CN1CCN(c2ccc(C(=O)Nc3n[nH]c4ccc(Cc5cc(F)cc(F)c5)cc34)c(NC3CCCCC3)c2)CC1 [Cpd 18, 2-Cyclohexylamino-N-[5-(3,5-difluoro-benzyl)-1H-indazol-3-yl]-4-(4-methyl-piperazin-1-yl)-benzamide]
0.411 |  | COCCNc1cc(N2CCN(C)CC2)ccc1C(=O)Nc1n[nH]c2ccc(Cc3cc(F)cc(F)c3)cc12 [Cpd 26, N-[5-(3,5-Difluoro-benzyl)-1H-indazol-3-yl]-2-(2-methoxy-ethylamino)-4-(4-methyl-piperazin-1-yl)-benzamide]
